In patent US20060258003A1, “Culture medium composition, culture method, and myoblasts obtained, and their uses” (CELOGOS, priority 2002, published 2006):

Assays:
human muscle cells [1] = assay: Toxicity of commercial statins on human muscle cells; format: cell-based; settings: 0-1 μM; FIG. 4; total culture time 5 days
Description: These experiments were reproduced with human muscle cells in order to test the toxicity of the commercial statins.
The experimentation procedure is as follows.
On day 1 the media are changed. On day 3 staining is carried out.
The total culture time is 5 days.
After aspiration of the culture medium, the cells are washed with PBS then fixed with 100% ethanol. 10 minutes later the cells are washed with water then stained with a solution of 10% Giemsa for 10 minutes. The final step is washing with water.
Images of the cells are obtained with an inverted microscope (Nikon) equipped with a digital camera and a motorized stage.

[2] = compared with other statins; cited from earlier work
human muscle cells [3] = assay: Effect of Hepes buffer on long-term growth of human muscle cells; format: cell-based; settings: 15 mM in culture medium
rat adipocyte cells = assay: Cell test predictive of muscle toxicity, rat adipocyte cells; settings: 0.5 μM; 2 days culture

COCc1c(C(C)C)nc(C(C)C)c(/C=C/[C@@H](O)C[C@@H](O)CC(=O)O)c1-c1ccc(F)cc1 [Cerivastatin]
toxicity on human muscle cells (human muscle cells [1]): high toxicity
toxicity in human clinical use [2]: most toxic statin

O=S(=O)(O)CCN1CCN(CCO)CC1 [Hepes]
growth of human muscle cells in the long term (human muscle cells [3]): inhibits the growth

CC[C@H](C)C(=O)O[C@H]1C[C@@H](C)C=C2C=C[C@H](C)[C@H](CC[C@@H]3C[C@@H](O)CC(=O)O3)[C@H]21 [Lovastatin]
sensitivity of adipocyte cells (rat adipocyte cells): insensitive
